Counter-ions that a name gives are not always drawn.
Test: collision cross section in nitrogen (drift tube, single-field); higher = larger gas-phase ion size
[1] = ion type: [M-H], ion source: ESI, ion mode: Negative
[2] = ion type: [M+H], ion source: APCI, ion mode: Positive
[3] = ion type: [M+H], ion source: ESI, ion mode: Positive
[4] = ion type: [M+Na], ion source: ESI, ion mode: Positive
[5] = ion type: [M+], ion source: APCI, ion mode: Positive
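Also: chemical standards at 10 µM analysed by drift tube IMS-QTOF MS in about 3.95 torr nitrogen, mean of duplicate injections differing ≤1%, mass error below 10 ppm.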

collision cross section in nitrogen [1] | Compound | also measured
159.9 Å² | O=C(Nc1ccccc1)c1cc([N+](=O)[O-])ccc1Cl [2-Chloro-5-nitro-N-phenylbenzamide] | –
125.5 Å² | Nc1cc([N+](=O)[O-])ccc1Cl [2-Chloro-5-nitroaniline] | –
146 Å² | Cc1cc(Br)ccc1NC(=O)CCl [2-Chloro-N-(2-methyl-4-bromophenyl)acetamide] | –
133.5 Å² | NS(=O)(=O)c1ccccc1Cl [2-Chlorobenzenesulfonamide] | –
169.9 Å² | CCCCC(CC)COC(=O)c1ccc(O)cc1 (stereo unspecified) [2-Ethylhexyl p-hydroxybenzoate] | –
124.3 Å² | CCc1ccccc1O [2-Ethylphenol] | –
149 Å² | NNc1nc(-c2ccc([N+](=O)[O-])cc2)cs1 [2-Hydrazino-4-(4-nitrophenyl)thiazole] | –
152.9 Å² | COc1ccc(C(=O)c2ccccc2)c(O)c1 [2-Hydroxy-4-methoxybenzophenone] | collision cross section in nitrogen [2]: 147.3 Å²
130.2 Å² | CC(=O)Nc1ccccc1O [2-Hydroxyacetanilide] | –
141.5 Å² | Oc1ccc2c(c1)Cc1ccccc1-2 [2-Hydroxyfluorene] | –
128.2 Å² | Sc1nc2ccccc2s1 [2-Mercaptobenzothiazole] | –
123.6 Å² | Cc1c(O)cccc1O [2-Methyl-1,3-benzenediol] | –

Second part, the compound before the results:

Compound | collision cross section in nitrogen [1] | also measured
Nc1ccc([N+](=O)[O-])cc1Cl [2-Chloro-4-nitroaniline] | 126.1 Å² | –
CCC(C)(CC)C(=O)O [2-Ethyl-2-methylbutyric acid] | 130.5 Å² | –
CCc1nc(C)c[nH]1 [2-Ethyl-4-methyl-1H-imidazole] | – | collision cross section in nitrogen [2]: 120.3 Å²; collision cross section in nitrogen [3]: 121.2 Å²
CCC(CC)C(=O)O [2-Ethylbutyric acid] | 127.6 Å² | –
CCCCC(CC)C(=O)O (stereo unspecified) [2-Ethylhexanoic acid] | 138.1 Å² | –
CCCCC(CC)COP(=O)(O)O (stereo unspecified) [2-Ethylhexyl dihydrogen phosphate] | 150.7 Å² | –
CCCCC(CC)COP(=O)(Oc1ccccc1)Oc1ccccc1 (stereo unspecified) [2-Ethylhexyl diphenyl phosphate] | – | collision cross section in nitrogen [4]: 200.9 Å²
CCCCCCCCC(CCCCCC)C(=O)O (stereo unspecified) [2-Hexyldecanoic acid] | 176.7 Å² | –
NNc1nc(-c2ccc(N)cc2)cs1 [2-Hydrazino-4-(4-aminophenyl) thiazole] | – | collision cross section in nitrogen [3]: 146.2 Å²
O=C(c1ccccc1)c1ccccc1O [2-Hydroxybenzophenone] | 143.4 Å² | –
Oc1ccccc1I [2-Iodophenol] | 121.9 Å² | –
Cc1cc(=O)nc(C(C)C)[nH]1 [2-Isopropyl-6-methyl-4-pyrimidone] | 135.5 Å² | collision cross section in nitrogen [2]: 133.9 Å²; collision cross section in nitrogen [3]: 132.5 Å²; collision cross section in nitrogen [4]: 146.4 Å²
CC(C)c1ccccc1O [2-Isopropylphenol] | 129.3 Å² | –
CC(C)c1ccc2sc3ccccc3c(=O)c2c1 [2-Isopropylthioxanthone] | – | collision cross section in nitrogen [2]: 155.5 Å²; collision cross section in nitrogen [3]: 156.4 Å²
CC(C)CC(=O)C1C(=O)c2ccccc2C1=O [2-Isovaleryl-1,3-indanedione] | 154.2 Å² | –
S=c1[nH]c2ccccc2[nH]1 [2-Mercaptobenzimidazole] | 127.1 Å² | collision cross section in nitrogen [2]: 128 Å²; collision cross section in nitrogen [3]: 127.8 Å²; collision cross section in nitrogen [5]: 125.7 Å²
COc1ccccc1C=O [2-Methoxybenzaldehyde] | – | collision cross section in nitrogen [5]: 124.1 Å²
Cn1sccc1=O [2-Methyl-3(2H)-isothiazolone] | – | collision cross section in nitrogen [2]: 117.1 Å²; collision cross section in nitrogen [3]: 117.9 Å²
Cn1sccc1=O [2-Methyl-3-isothiazolone hydrochloride] | – | collision cross section in nitrogen [3]: 118.5 Å²

From the supplement of paper PMC12317010
